Test system: PANC-1 cells
Experiment: Quantification of F-2,6-P2 in PANC-1 cells
Type: cell-based
Conditions: Homo sapiens; for inhibition at 12.5 µM: at 12.5 μM in PANC-1 cells; for IC50: PANC-1, read-out: IC50 based on quantification of F-2,6-P2
Source text: The relative kinase (formation) and phosphatase (degradation) activities of the bi-functional enzymes PFKFB3 and PFKFB4 control the intracellular levels of the regulator F-2,6-P2, which acts as an allosteric activator of glycolysis. The levels of F-2,6-P2 have been determined in three different cancer cell lines (MCF-7, PANC-1 and NUGC-3) using the van Shaftingen assay. The assay protocols described under “Methods for measurement of enzymatic activity of PFKFB3 and PFKFB4, Method A” have been adapted for the measurement of the inhibitory effect of compounds on the kinase activity of the various isoforms of the bifunctional enzyme (endogenously expressed) in the different cell lines. The modifications are described in the protocol below. All reagents were purchased from commercial sources or prepared inhouse.
Cell Line B (PANC-1, Human Pancreatic Carcinoma Cell Line)
• Cells: PANC-1 (ATCC-CRL-1469). Lot. no: 58564651. • Growth medium: Dulbecco's Modified Eagle's Medium, DMEM, ATCC-30-2002 10% FBS, Invitrogen, 10106-169
Cells were seeded at a concentration of 250 000 cells/mL in 100 μL growth medium (25 000 cells/well)
Starvation medium: DMEM/F12 without phenol red and glucose free, SVA, 991373 0.25% FBS, Invitrogen, 10106-169
Induction medium: DMEM/F12 without phenol red and glucose free, SVA, 991373 0.25% FBS, Invitrogen, 10106-169 (same as starvation medium)
Cells were seeded in 96-well Corning Costar tissue culture plates (CLS3595, Sigma-Aldrich) using the concentrations specified above for the three different cell lines A-C and incubated over night at 37° C. and 5% CO2. Row A was left empty. Next day the growth medium was discarded and replaced with 100 μL starvation medium. The plates were incubated for 18 h at 37° C. and 5% CO2. After 18 h of starvation the cells were induced with 100 μL compound or control solutions. Compounds were either tested in two concentrations (50 μM and 10 μM) or in dose response curves starting from 50 μM and the final DMSO concentration in assay plates was 0.5%. Also a dose response curve of a reference inhibitor was included in row H on each plate. All compounds were tested in duplicate plates. Compounds (in 96 well CLS 3365, Sigma-Aldrich) were serial diluted in DMSO from 10 mM compound DMSO stock solutions with Janus (automated liquid handling workstation from PerkinElmer). 5 μL were transferred to a Greiner deep well plate (736-0155, VWR) with 495 μL starvation medium. The final start concentration of compounds in the dilution plate was 100 μM, 1% DMSO. For compounds tested as single points, 10 mM compound solutions were diluted five fold in DMSO to 2 mM, followed by the transfer of 5 μL to separate dilution plates with 495 μL starvation medium. The final concentration of compounds in these dilution plates were 100 or 20 μM, respectively, and final concentration of DMSO was 1%. The plates were incubated at 37° C. and 5% CO2 for 1 h, followed by the addition of 10 μL 20 mM D-glucose in starvation medium. Controls, with and without 1 mM glucose, were included in row B. The final assay volume was 210 μL per well. After 2 h of incubation at 37° C. and 5% CO2, supernatants were discarded and the cells were lysed by the addition of 25 μL 250 mM NaOH. The plates were incubated at 37° C. and 5% CO2 for 5 min followed by an addition of 75 μL MilliQ dH2O. The supernatants were further diluted with 210 μL MilliQ dH2O to a final concentration of 20 mM NaOH. 200 μL were transferred to NUNC 96-well plates (7322661, VWR) and the plates were sealed and stored at −20° C. until analysis.
The amount of F-2,6-P2 was quantified based on the coupled enzymatic reaction described by Van Schaftingen. If necessary the samples were further diluted in 20 mM NaOH before quantification. Plates stored at −20° C. were thawed and the F-2,6-P2 quantification was initiated by transferring 40 μL from each well of the NUNC plate to the corresponding position in a trans-parent 96-well SpectraPlate-MB (6005649, PerkinElmer). […]

| Compound | inhibition at 12.5 µM | IC50 |
| --- | --- | --- |
| Cc1c(S(=O)(=O)Nc2cccc(C(=O)OCCn3cccc3)c2)sc2ccc(Cl)cc12 [Example 106, 2-(1H-Pyrrol-1-yl)ethyl 3-{[(5-chloro-3-methyl-1-benzothien-2-yl)sulfonyl]amino}benzoate] | > 50% | – |
| Cc1c(S(=O)(=O)Nc2cccc(C(=O)Oc3ccccc3)c2)sc2ccc(Cl)cc12 [Example 115, Phenyl 3-{[(5-chloro-3-methyl-1-benzothiophen-2-yl)sulfonyl]amino}benzoate] | > 50% | – |
| Cc1c(S(=O)(=O)Nc2cccc(-c3nnn[nH]3)c2)sc2ccc(C(C)C)cc12 [Example 4, 5-Isopropyl-3-methyl-N-[3-(1H-tetrazol-5-yl)phenyl]benzothiophene-2-sulfonamide] | – | 7.5 µM |
| Cc1c(S(=O)(=O)Nc2cccc(C(=O)OCc3ccccc3)c2)sc2ccc(Cl)cc12 [Example 111, Benzyl 3-{[(5-chloro-3-methyl-1-benzothiophen-2-yl)sulfonyl]amino}benzoate] | > 50% | – |
| CCOC(=O)c1cccc(NS(=O)(=O)c2sc3ccc(Cl)cc3c2C)c1 [Example 107, Ethyl 3-{[(5-chloro-3-methyl-1-benzothien-2-yl)sulfonyl]amino}benzoate] | > 50% | – |
| COC(=O)c1cccc(NS(=O)(=O)c2oc3ccc(C(C)C)cc3c2C)c1 [Example 123, Methyl 3-({[3-methyl-5-(1-methylethyl)-1-benzofuran-2-yl]sulfonyl}amino)benzoate] | > 50% | – |
| Cc1c(S(=O)(=O)Nc2cccc(C(=O)OC(C)C)c2)sc2ccc(Cl)cc12 [Example 108, Isopropyl 3-{[(5-chloro-3-methyl-1-benzothien-2-yl)sulfonyl]amino}benzoate] | – | 3.1 µM |
| COC(=O)c1cccc(NS(=O)(=O)c2sc3c(Cl)cccc3c2C)c1 [Example 122, Methyl 3-{[(7-chloro-3-methyl-1-benzothiophen-2-yl)sulfonyl]amino}benzoate] | – | 8.7 µM |
| COCCOC(=O)c1cccc(NS(=O)(=O)c2sc3ccc(Cl)cc3c2C)c1 [Example 109, 2-Methoxyethyl 3-{[(5-chloro-3-methyl-1-benzothiophen-2-yl)sulfonyl]amino}benzoate] | > 50% | – |
| CCCCCOC(=O)c1cccc(NS(=O)(=O)c2sc3ccc(Cl)cc3c2C)c1 [Example 113, Pentyl 3-{[(5-chloro-3-methyl-1-benzothiophen-2-yl)sulfonyl]amino}benzoate] | > 50% | – |
| COC(=O)c1cccc(NS(=O)(=O)c2sc3c(OC)cccc3c2C)c1 [Example 121, Methyl 3-{[(7-methoxy-3-methyl-1-benzothiophen-2-yl)sulfonyl]amino}benzoate] | – | 9 µM |
| COC(=O)c1cccc(NS(=O)(=O)c2sc3ccc(Br)cc3c2C)c1 [Example 120, Methyl 3-{[(5-bromo-3-methyl-1-benzothiophen-2-yl)sulfonyl]amino}benzoate] | – | 3.5 µM |
| CCCOC(=O)c1cccc(NS(=O)(=O)c2sc3ccc(Cl)cc3c2C)c1 [Example 112, Propyl 3-{[(5-chloro-3-methyl-1-benzothien-2-yl)sulfonyl]amino}benzoate] | – | 4.3 µM |
| Cc1c(S(=O)(=O)Nc2cccc(C(=O)OCCCN(C)C)c2)sc2ccc(Cl)cc12 [Example 118, 3-(Dimethylamino)propyl 3-{[(5-chloro-3-methyl-1-benzothiophen-2-yl)sulfonyl]amino}benzoate] | – | 2.8 µM |
| Cc1c(S(=O)(=O)Nc2cccc(C(=O)OC3CCOC3)c2)sc2ccc(Cl)cc12 (stereo not drawn) [Example 116, Tetrahydrofuran-3-yl 3-{[(5-chloro-3-methyl-1-benzothiophen-2-yl)sulfonyl]amino}benzoate] | – | 1.3 µM |
| COC(=O)Cn1nnc(-c2cccc(NS(=O)(=O)c3sc4ccc(C(C)C)cc4c3C)c2)n1 [Example 119, Methyl {5-[3-({[3-methyl-5-(1-methylethyl)-1-benzothiophen-2-yl]sulfonyl}amino)phenyl]-2H-tetrazol-2-yl}acetate] | – | 7 µM |
| Cc1c(S(=O)(=O)Nc2cccc(C(=O)OCC3CCOC3)c2)sc2ccc(Cl)cc12 (stereo not drawn) [Example 117, Tetrahydrofuran-3-ylmethyl 3-{[(5-chloro-3-methyl-1-benzothiophen-2-yl)sulfonyl]amino}benzoate] | > 50% | – |
| COC(=O)c1cccc(NS(=O)(=O)c2sc3ccc(C(C)C)cc3c2C)c1 [Example 92, Methyl 3-({[3-methyl-5-(1-methylethyl)-1-benzothiophen-2-yl]sulfonyl}amino)benzoate] | – | 0.5 µM |
| CCOC(=O)c1sc(NS(=O)(=O)c2cc(-c3cc(F)ccc3F)c(Cl)s2)nc1C [Example 127, Ethyl 2-({[5-chloro-4-(2,5-difluorophenyl)thiophen-2-yl]sulfonyl}amino)-4-methyl-1,3-thiazole-5-carboxylate] | > 50% | – |
| CCOC(=O)c1sc(NS(=O)(=O)c2sc3ccc(Cl)cc3c2C)nc1C [Example 126, Ethyl 2-{[(5-chloro-3-methyl-1-benzothiophen-2-yl)sulfonyl]amino}-4-methyl-1,3-thiazole-5-carboxylate] | > 50% | – |
| COC(=O)c1cccc(NS(=O)(=O)c2ccc(-c3csc(C)n3)s2)c1 [Example 88, Methyl 3-({[5-(2-methyl-1,3-thiazol-4-yl)-2-thienyl]sulfonyl}amino)benzoate] | – | 5.4 µM |
